Consider 14 compounds from patent US10167272B2, “Muscarinic agonists” (Heptares Therapeutics Limited, priority 2015, dated 2019).

What all share (format): cell-based
Assay [1] addresses T1, human muscarinic M1 receptor (Homo sapiens, UniProt P11229).
T1 sequence (P11229 1-460): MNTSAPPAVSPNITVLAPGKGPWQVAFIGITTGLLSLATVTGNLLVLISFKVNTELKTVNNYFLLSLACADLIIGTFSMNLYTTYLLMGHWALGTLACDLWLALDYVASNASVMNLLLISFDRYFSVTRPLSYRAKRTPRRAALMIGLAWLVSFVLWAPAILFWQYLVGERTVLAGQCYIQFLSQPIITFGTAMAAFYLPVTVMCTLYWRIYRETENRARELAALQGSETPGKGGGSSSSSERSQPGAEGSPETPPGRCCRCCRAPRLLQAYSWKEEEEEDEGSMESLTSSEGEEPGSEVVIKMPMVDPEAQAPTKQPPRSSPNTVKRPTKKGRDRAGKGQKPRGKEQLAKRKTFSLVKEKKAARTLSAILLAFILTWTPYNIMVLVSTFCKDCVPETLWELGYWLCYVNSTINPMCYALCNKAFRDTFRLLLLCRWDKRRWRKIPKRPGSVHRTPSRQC
Description: Alphascreen Surefire phospho-ERK1/2 functional assay, M1. The note with it: phospho-ERK1/2; for EC50 / % Emax cf. ACh (M1): CHO cells stably expressing human M1; for EC50: read-out: pEC50 M1 (converted); for Emax: CHO, read-out: % Emax cf. ACh (M1), CHO cells stably expressing human M1; for Emax / % Emax cf. ACh (M1): relative to ACh. A digest of the protocol: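 CHO cells stably expressing human M1, M2 or M3 receptor, serum-starved overnight, were stimulated with agonist for 5 min at 37 °C. Cells were then lysed and ERK1/2 phosphorylation detected by AlphaScreen SureFire.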
On the technique in general: Alpha assays give light when donor and acceptor beads are brought close together.

The target in assay [2] is T2, human muscarinic M2 receptor (Homo sapiens, UniProt P08172).
T2 sequence (P08172 1-466): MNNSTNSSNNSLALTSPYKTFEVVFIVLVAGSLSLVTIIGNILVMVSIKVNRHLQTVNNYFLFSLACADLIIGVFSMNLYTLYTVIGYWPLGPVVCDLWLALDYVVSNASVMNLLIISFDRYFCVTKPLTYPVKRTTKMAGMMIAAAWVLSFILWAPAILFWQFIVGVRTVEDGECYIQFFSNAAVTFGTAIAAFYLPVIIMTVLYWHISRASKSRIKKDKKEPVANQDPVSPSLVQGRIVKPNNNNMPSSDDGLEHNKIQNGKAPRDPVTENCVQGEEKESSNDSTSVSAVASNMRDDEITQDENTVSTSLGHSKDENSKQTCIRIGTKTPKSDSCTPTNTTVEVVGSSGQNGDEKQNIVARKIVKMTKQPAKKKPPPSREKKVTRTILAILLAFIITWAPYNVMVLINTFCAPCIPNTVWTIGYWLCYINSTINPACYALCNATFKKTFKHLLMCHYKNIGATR
Description: Alphascreen Surefire phospho-ERK1/2 functional assay, M2. To be noted: for EC50: CHO cells stably expressing human M2, read-out: pEC50 M2 (converted); for Emax: CHO, read-out: % Emax cf. ACh (M2), CHO cells stably expressing human M2, relative to ACh. As to the method: (§1) ERK1/2 phosphorylation is a downstream consequence of both Gq/11 and Gi/o protein coupled receptor activation, making it highly suitable for the assessment of M1, M3 (Gq/11 coupled) and M2, M4 receptors (Gi/o coupled), rather than using different assay formats for different receptor subtypes. CHO cells stably expressing the human muscarinic M1, M2, M3 or M4 receptor were plated (25K/well) onto 96-well tissue culture plates in MEM-alpha+10% dialysed FBS. Once adhered, cells were serum-starved overnight. Agonist stimulation was performed by the addition of 5 μL agonist to the cells for 5 min (37° C.). Media was removed and 50 μL of lysis buffer added. After 15 min, a 4 μL sample was transferred to 384-well plate and 7 μL of detection mixture added.

In assay [3] the target is T3, human muscarinic M3 receptor (Homo sapiens, UniProt P20309).
T3 construct: expressed in transfected cells
T3 sequence (P20309 whole entry): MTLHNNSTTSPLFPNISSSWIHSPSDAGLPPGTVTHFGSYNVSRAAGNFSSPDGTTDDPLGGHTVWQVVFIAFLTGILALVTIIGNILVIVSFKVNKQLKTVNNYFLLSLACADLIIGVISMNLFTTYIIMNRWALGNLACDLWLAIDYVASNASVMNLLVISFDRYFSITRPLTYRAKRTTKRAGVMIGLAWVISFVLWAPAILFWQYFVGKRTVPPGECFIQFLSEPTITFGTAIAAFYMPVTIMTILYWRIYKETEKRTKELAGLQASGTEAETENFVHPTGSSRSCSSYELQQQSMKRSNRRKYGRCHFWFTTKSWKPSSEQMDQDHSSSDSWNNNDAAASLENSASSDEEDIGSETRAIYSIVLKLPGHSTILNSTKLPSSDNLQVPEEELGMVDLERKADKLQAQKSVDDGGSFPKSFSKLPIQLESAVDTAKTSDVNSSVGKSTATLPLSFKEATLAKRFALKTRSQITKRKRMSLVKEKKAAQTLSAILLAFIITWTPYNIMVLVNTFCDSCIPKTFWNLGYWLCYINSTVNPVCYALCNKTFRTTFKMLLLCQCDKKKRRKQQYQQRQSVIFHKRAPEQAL
Description: Alphascreen Surefire phospho-ERK1/2 functional assay, M3. The note with it: phospho-ERK1/2; for EC50: CHO cells stably expressing human M3, read-out: pEC50 M3 (converted); for Emax: CHO, read-out: % Emax cf. ACh (M3), CHO cells stably expressing human M3, relative to ACh. As to the method:
as §1

Assay [4] addresses T4, human muscarinic M4 receptor (Homo sapiens, UniProt P08173).
T4 construct: expressed in transfected cells
T4 sequence (P08173 1-479): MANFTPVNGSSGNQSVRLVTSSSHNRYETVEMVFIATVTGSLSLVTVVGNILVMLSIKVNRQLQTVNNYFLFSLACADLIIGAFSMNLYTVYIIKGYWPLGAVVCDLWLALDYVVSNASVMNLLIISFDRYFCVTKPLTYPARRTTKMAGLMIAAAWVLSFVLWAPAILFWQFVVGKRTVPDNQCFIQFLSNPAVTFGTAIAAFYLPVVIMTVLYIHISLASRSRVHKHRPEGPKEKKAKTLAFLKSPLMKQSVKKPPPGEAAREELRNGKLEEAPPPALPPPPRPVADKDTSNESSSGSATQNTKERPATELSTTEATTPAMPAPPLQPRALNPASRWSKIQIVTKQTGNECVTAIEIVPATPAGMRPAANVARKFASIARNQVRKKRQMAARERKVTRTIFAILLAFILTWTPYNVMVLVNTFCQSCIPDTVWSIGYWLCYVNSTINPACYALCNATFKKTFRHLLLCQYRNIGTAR
Description: Alphascreen Surefire phospho-ERK1/2 functional assay, M4. The note with it: for Emax: CHO, read-out: % Emax cf. ACh (M4), CHO cells stably expressing human M4; for Emax / % Emax cf. ACh (M4): relative to ACh.

Where [5] appears, read: CHO cells stably expressing human M4, phospho-ERK1/2, read-out: pEC50 M4 (converted).
The mark [6] stands for this setting: CHO cells stably expressing human M4, phospho-ERK1/2.

Like-named read-outs stand apart in the source and are kept apart here. A value given as a limit tells only on which side of the number the result lay.

`CCOC(=O)N1CCC2(CC(N3CCC(N(CC(=O)OC)C4CC4)CC3)C2)C1` (single isomer, unassigned) [2-9 Isomer 2]: the EC50 was above 20000 nM in assay [1], above 20000 nM in assay [2], above 20000 nM in assay [3] and 100 nM in assay [4] (setting [5]). Moreover, the Emax amounted to 14% in assay [1], 6% in assay [2], 5% in assay [3] and 92% in assay [4] (phospho-ERK1/2).
Regarding `CCOC(=O)N1CCC2(CC(N3CCC(N(CC4(C)CCC4)C(C)=O)CC3)C2)C1` (single isomer, unassigned) [Example 2-21 Isomer 2], the EC50 was 63.1 nM in assay [1], above 20000 nM in assay [2], above 20000 nM in assay [3] and 158 nM in assay [4] (setting [5]). Also, the “% Emax cf. ACh (M1)” value in assay [1] (listed as 2-21 isomer 2) was found to be 89%. The Emax was 18% in assay [2] and 22% in assay [3].
Regarding `CCOC(=O)N1CCC2(CC(N3CCC(N(CC)C(=O)OC)CC3)C2)C1` (single isomer, unassigned) [2-39 Isomer 2], the EC50 in assay [1] is 316 nM; in assay [2], above 20000 nM; in assay [3], above 20000 nM; in assay [4] (setting [5]) it was 25.1 nM. In addition, the maximal response (Emax) was found to be 39% in assay [1], 12% in assay [2], 25% in assay [3] and 126% in assay [4] (phospho-ERK1/2).
Turning to `CCOC(=O)N1CC2(CCC(N3CCC(N(C(C)=O)C4CC4)CC3)C2)C1` (racemic) [3-1 Racemic], the EC50 is above 20000 nM in assay [1], above 20000 nM in assay [2], above 20000 nM in assay [3] and 10 nM in assay [4] (setting [5]). For the same compound, the Emax in assay [1] amounted to 19%; in assay [2], 2%; in assay [3] it was 5%; in assay [4] (phospho-ERK1/2), 46%.
`CCOC(=O)N1CCC2(CC(N3CCC(N(CC)Cc4cnco4)CC3)C2)C1` (single isomer, unassigned) [2-60 Isomer 2]: the EC50 was above 20000 nM in assay [1], above 20000 nM in assay [2], above 20000 nM in assay [3] and 63.1 nM in assay [4] (setting [5]). Moreover, the Emax was found to be 62% in assay [1], 20% in assay [2], 56% in assay [3] and 111% in assay [4] (phospho-ERK1/2).
With `CCOC(=O)N1CCC2(CC(N3CCC(N(Cc4cnco4)CC(F)(F)F)CC3)C2)C1` (single isomer, unassigned) [2-62 Isomer 2], the EC50 in assay [1] was 1000 nM; in assay [2] it was above 20000 nM; in assay [3] it was above 20000 nM; in assay [4] (setting [5]), 20 nM. In addition, the Emax turned out to be 85% in assay [1], 12% in assay [2], 11% in assay [3] and 106% in assay [4] (phospho-ERK1/2).
On to `CCOC(=O)N1CCC2(CC(N3CCC(N(CC(C)C)C(C)=O)CC3)C2)C1` (single isomer, unassigned) [2-19 Isomer 2], for which the EC50 in assay [1] is 100 nM; in assay [2] it was above 20000 nM; in assay [3], above 20000 nM; in assay [4] (setting [5]), 63.1 nM. For the same compound, in assay [1], the “% Emax cf. ACh (M1)” value was found to be 115%. Besides, the Emax in assay [2] is 31%; in assay [3] it was 58%. Besides, the “% Emax cf. ACh (M4)” value in assay [4] (setting [6]) turned out to be 118%.
In the case of `CCOC(=O)N1CCC2(CC(N3CCC(N(Cc4ccon4)C4CC4)CC3)C2)C1` (single isomer, unassigned) [2-10 Isomer 2], the EC50 was 794 nM in assay [1], above 20000 nM in assay [2], above 20000 nM in assay [3] and 31.6 nM in assay [4] (setting [5]). Besides, the Emax was determined as 42% in assay [1], 11% in assay [2], 7% in assay [3] and 122% in assay [4] (phospho-ERK1/2).
Take `CCOC(=O)N1CCC2(CC(N3CCC(N(C(C)=O)C4CC4)CC3)C2)C1` (single isomer, unassigned) [2-3 Isomer 2]: the EC50 is 200 nM in assay [1], above 20000 nM in assay [2], above 20000 nM in assay [3] and 31.6 nM in assay [4] (setting [5]). The “% Emax cf. ACh (M1)” value in assay [1] is 93%. Moreover, the figures for the maximal effect (Emax) in assay [2] and in assay [3] were 13% and 6%, respectively. Further, the “% Emax cf. ACh (M4)” value in assay [4] (setting [6]) came out at 93%.
Regarding `CCOC(=O)N1CCC2(CC(N3CCC(N(CC)CCF)CC3)C2)C1` (single isomer, unassigned) [2-45 Isomer 2], the EC50 in assay [1] is 631 nM; in assay [2], above 20000 nM; in assay [3] it was above 20000 nM; in assay [4] (pEC50 M4) it was 63.1 nM. The Emax amounted to 30% in assay [1], 9% in assay [2], 16% in assay [3] and 45% in assay [4] (phospho-ERK1/2).
Consider `CCOC(=O)N1CCC2(CC(N3CCC(N(Cc4ccccc4)CC(F)(F)F)CC3)C2)C1` (single isomer, unassigned) [2-59 Isomer 2], for which the EC50 in assay [1] was above 20000 nM; in assay [2], above 20000 nM; in assay [3] it was above 20000 nM; in assay [4] (setting [5]), 79.4 nM. Moreover, the Emax was found to be 9% in assay [1], 9% in assay [2], 14% in assay [3] and 52% in assay [4] (phospho-ERK1/2).
For `CCOC(=O)N1CCC2(CC(N3CCC(C(C)n4cccn4)CC3)C2)C1` (single isomer, unassigned) [2-65 Isomer 2a], the EC50 was 1000 nM in assay [1], above 20000 nM in assay [2], above 20000 nM in assay [3] and 200 nM in assay [4] (setting [5]). In addition, the “% Emax cf. ACh (M1)” value in assay [1] amounted to 43%. The Emax in assay [2] and in assay [3] was 15% in each case. In addition, the “% Emax cf. ACh (M4)” value in assay [4] (setting [6]) came out at 45%.
With `CCOC(=O)N1CCC2(CC(N3CCC(SCc4ccccc4)CC3)C2)C1` (single isomer, unassigned) [2-67 Isomer 2], the EC50 in assay [1] is above 20000 nM; in assay [2], above 20000 nM; in assay [3], above 20000 nM; in assay [4] (setting [5]), 31.6 nM. The maximum response (Emax) in assay [1] is 19%; in assay [2], 2%; in assay [3] it was 2%; in assay [4] (phospho-ERK1/2), 55%.
In the case of `CCOC(=O)N1CCC2(CC(N3CCC(OC(C)c4ccccc4)CC3)C2)C1` (single isomer, unassigned) [2-66 Isomer 2], the EC50 in assay [1] was above 20000 nM; in assay [2], above 20000 nM; in assay [3] it was above 20000 nM; in assay [4] (setting [5]), 39.8 nM. The Emax in assay [1] worked out at 59%; in assay [2], 17%; in assay [3], 8%; in assay [4] (phospho-ERK1/2), 76%.

One may read the Emax as the maximal effect, on the per cent scale that the assay sets.
